Data set [1] concerns the target T1, cruzain (Trypanosoma cruzi, UniProt P25779).
T1 construct: made in house
The data set is described as follows: Reversibility assay: recovery of cruzain activity after rapid large dilution. It is filed as biochemical. As to conditions: 4.5 μM compound incubated with 15 nM cruzain for 30 min, diluted 100-fold. On the procedure:
The progress curve for this sample was then measured and compared to that of a similar sample of enzyme incubated and diluted in the absence of inhibitor. The irreversible inhibitor E-64 (CAS 66701-25-5, Sigma Aldrich) was used as reference.

Data set [2] has as its system T. cruzi Tulahuen strain amastigotes. Put plainly: Trypanocidal activity against amastigote forms in LLCMK2 cells, Tulahuen strain. The data set is classed as cell-based. The settings on record: Trypanosoma cruzi; for EC50: LLC-MK2; for killing at 32 µM: LLC-MK2, 120 h, amastigote lysis, 5 days, read-out: %cell lysis at 32 μM ama Tula.
Experimental: (§1) The assays against amastigote forms were performed in LLCMK2 cells. Previously, the cells were cultivated in 96-wells microplates (10^3 cells/well). […] After this, the microplates were incubated at 37°C, in CO2 atmosphere, for 5 days. Then, 10 μL of FluoReporter lacZ/Galactosidase Quantitative Kit (Life Technologies) were added and after 30 minutes the fluorometric reaction was read in a microplate reader (Synergy H1, Biotek) at 386 nm excitation and 448 nm emission. For both assays the percentage of parasite lysis was determined from the following formula: %lysis = 100 –{[(X-PC)/(PC-NC)]x100}, where the optical density values of the samples (X), the positive controls (PC) and negative controls (NC) were used. Culture medium was used as positive control (PC) and medium with 0.6% DMSO (v/v) as negative control (NC). All assays were performed in triplicate with two independent experiments.
In data set [3] the target is T1, cruzain. Put plainly: biochemical. The settings on record: 37°C, pH 5.5, substrate Z-FR-AMC.
Experimental: Enzyme kinetic assays were carried out at 37°C in 200 L of a solution containing 100 mM acetate buffer pH 5.5, 300 mM NaCl, 5 mM DTT (dithiothreitol), 5% v/v DMSO (dimethyl sulfoxide), 0.01% v/v Triton X-100 and 0.15 nM cruzain, using Corning® 96-well black flat bottom microplates. The rate of the reaction was monitored using a Biotek Synergy HT plate reader through the fluorescence emission at 460 nm (excitation at 355 nm) due to the hydrolysis of the substrate Z-Phe-Arg-7-amido-4-methylcoumarin (Z-FR-AMC, Sigma-Aldrich). The enzyme stock aliquot was rapidly thawed at 37°C and kept on ice until activation, in which it was incubated for 20 min. in the assay buffer (100 mM acetate pH 5.5 and 5 mM DTT) followed by additional 2 min. incubation with inhibitors before the reaction was started by the addition of the substrate.
Visual inspection and a pre-reading of plate wells were performed to check for possible precipitation and background fluorescence, respectively. Fluorescence emission spectra were also recorded for all inhibitors, using the same excitation wavelength (355 nm) as for the fluorometric assay. […] The reaction was started by the addition of varying concentrations of the substrate and the wells monitored for a total of 5 minutes of reaction. The initial velocities of the substrate hydrolysis under first-order reaction were calculated by Gen5 Biotek software based on the linear-regression coefficient from the fit to data of Relative Fluorescence Unit (mRFU) as a function of time (min).
Each experiment was performed in duplicates for each compound being tested. […] All inhibitors were evaluated in two different concentrations, which were chosen based on a previous screening (percentage of inhibition) at 1.7 μM substrate (~K M). […] SigmaPlot (v. 10.0) was employed for the non-linear fit and the kinetic parameters determination.
Data set [4] relates to Balb-c 3T3 clone A31 cells. Put plainly: MTT cytotoxicity assay using mouse fibroblast cells. It is filed as cell-based. The settings on record: 250 μM, Balb-c 3T3 cells, MTT, 24, 48 and 72 h, benznidazole as control. As for the experimental part:
All compounds were subjected to the MTT colorimetric assay using Balb-c 3T3 clone A31 cells (mouse fibroblast cells) acquired from the Rio de Janeiro Cell Bank (BCRJ code 0047). Inhibition values were determined in the cell-based assay as previously described. Briefly, cells were cultured at 37°C in an atmosphere of 5% CO2 using DMEM medium (Cultilab, Campinas-SP, Brazil) supplemented with 3.5 g glucose (Sigma-Aldrich), 1% penicillin/streptomycin solution and 10% FBS (Cultilab). Cells were plated at a concentration of 10^5 cell/mL in 96-well plates and incubated for 24 h. All compounds were freshly diluted from 50 mM DMSO stock solutions to obtain the final concentration of 250 μM and added to each well by replacing the medium. The cell viability was assessed during 24, 48 and 72 h using the MTT (Sigma-Aldrich) reagent, with an incubation time of 3 h. […] The readout was obtained using Biotek Synergy HT plate reader at 570 nm. Benznidazole was used as control. This assay was done in quatruplicate in two independent experiments. Statistical analyses were made in GraphPad Prism 5. Dunnett’s multiple comparison tests were performed using benznidazole as the standard compound for the ordinary ANOVA analysis using 95% confidence interval.
A general note: Tetrazolium assays rely on reduction of a dye to a coloured formazan, in cell work by metabolically active cells.

Data set [5] concerns T. cruzi CL-Brener strain amastigotes. Put plainly: Trypanocidal activity against amastigote forms in LLCMK2 cells, CL-Brener strain. It is filed as cell-based. The settings on record: Trypanosoma cruzi, LLC-MK2, 120 h, amastigote lysis, 5 days, read-out: %cell lysis at 32 μM ama Brener.
Experimental: as §1
The next data set has as its system LLCMK2 cells. The data set is described as follows: Lysis of LLCMK2 host cells. The data set is classed as cell-based. The settings on record: Macaca mulatta, LLC-MK2, 32 μM, read-out: %cell lysis at 32 μM LLCMK2.
A short description of data set [6]: Lysis of LLCMK2 host cells. It is filed as cell-based. The settings on record: rhesus monkey, footnote of Table 3, cell line not stated.
Setting [7] is: amastigote, T. cruzi Tulahuen strain, read-out: pEC50 ama Tula (converted).

Read-outs that look alike come from different tables or passages of the source.
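Throughout, for Ki: fluorometric read-out of substrate hydrolysis at excitation 355 nm and emission 460 nm, initial rates over 5 min, Ki from nonlinear kinetic fits, duplicate runs.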

T1 sequence (P25779 123-337 limits assumed): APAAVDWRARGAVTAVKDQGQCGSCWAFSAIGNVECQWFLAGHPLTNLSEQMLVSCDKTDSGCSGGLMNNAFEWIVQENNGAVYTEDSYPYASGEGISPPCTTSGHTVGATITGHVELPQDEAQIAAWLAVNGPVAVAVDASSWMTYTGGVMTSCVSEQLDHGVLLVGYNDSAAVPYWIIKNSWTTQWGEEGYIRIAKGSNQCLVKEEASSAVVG

Usually Ki stands for a dissociation constant, usually derived from enzyme kinetics or from competition with a known ligand. High values mean lower affinity, low ones higher affinity. Turning to `N#CCNC(=O)[C@H](Cc1ccccc1)NC(=O)c1ccccc1` [Compound 5, (2S)-N-(cyanomethyl)-3-phenyl-2-(phenylformamido)propanamide], the reversibility of inhibition result on cruzain [1] is listed as “reversible”. Further, in data set [2] (setting [7]), the EC50 is 126 µM. The Ki at cruzain [3] was 0.501 µM.
Broadly, the melting point is the temperature of the solid-liquid transition. In turn, `N#CCNC(=O)[C@H](Cc1c[nH]c2ccccc12)NC(=O)c1ccccc1` [Compound 12, (2S)-N-(cyanomethyl)-3-(1H-indol-3-yl)-2-(phenylformamido)propanamide] came in with a melting point of 158 to 159 °C. In addition, in data set [4], the cytotoxicity entry is “same range of cytotoxicity when compared to benznidazole”. Besides, the killing at 32 µM in data set [5] was determined as 17 ± 1%. The killing at 32 µM in data set [2] (T. cruzi Tulahuen strain) stood at 60 ± 5%. The EC50 in data set [2] (against the parasite (amastigote, Tulahuen strain), read-out: EC50) worked out at 28 µM. In data set [2] (setting [7]), the EC50 was 25.1 µM. At cruzain [3], this compound had a Ki of 0.398 µM. Further, the cytotoxicity at 32 µM in the data set on LLCMK2 cells came out at 34 ± 5%.
The term CC50 denotes the concentration at which the toxic effect on the cells reaches its halfway point. Read a low CC50 as greater toxicity to the cells. As to `O=C(Cn1ccnc1[N+](=O)[O-])NCc1ccccc1` [Benznidazole, reference compound], the killing at 32 µM in data set [5] was 29 ± 2%; in data set [2] (T. cruzi Tulahuen strain), 78 ± 3%. Further, in data set [2] (setting [7]), the EC50 was 1.58 µM. In addition, the cytotoxicity at 32 µM in the data set on LLCMK2 cells came to 31 ± 2%. Besides, half-maximal cytotoxicity in data set [6] (CC50 at 5 days) was put at 353 µM.
In turn, `CC(C)C[C@H](NC(=O)c1cc(C(C)(C)C)nn1C)C(=O)NCC#N` [Compound 29, (2S)-2-[(3-tert-butyl-1-methyl-1H-pyrazol-5-yl)formamido]-N-(cyanomethyl)-4 methylpentanamide] gave a melting point of 179 to 180 °C. In addition, the killing at 32 µM in data set [5] amounted to 10 ± 1%. Further, the killing at 32 µM in data set [2] (T. cruzi Tulahuen strain) was determined as 17 ± 4%. Moreover, affinity on cruzain [3] was put at a Ki of 0.0631 µM. Moreover, the cytotoxicity at 32 µM in the data set with LLCMK2 cells amounted to 27 ± 18%.
